This note sets out measurements from patent publication US20140378395A1, “Peptides for the Treatment of Hearing” (13Therapeutics, Inc., priority 2011, published 2014).

For assay [1], the system named is TNF-α secretion from RAW264.7 cells. Kind of assay: Inhibition of CpG-ODN-induced TNF-α secretion from RAW264.7 cells (ELISA). As to conditions: for activity compared with P13 (inhibition of TNF-α after stimulation of RAW264.7 cells with CpG): SAR, versus P13; for Percent Inhibition of TNF-α secretion, CpG Stimulation / Inhibition of TNF-α secretion (percent inhibition) / Percent Inhibition of TNF-α secretion: RAW264.7, 4 hours; for Percent Inhibition of TNF-α secretion, CpG Stimulation: 1.25 ug/ml CpG-ODN; for Inhibition of TNF-α secretion (percent inhibition) / Percent Inhibition of TNF-α secretion: 1 μg/ml CpG-ODN. The class given is cell-based, murine. On the procedure: RAW264.7 cells were plated at 1.5×10^5 cells/well-3×10^5 cells/well in 48-well plates. After 24 hours, the cells were incubated with peptides at various concentrations at room temperature in triplicate either before, simultaneous with, or after activation with various PAMPs for 18 hours. Cell-free supernatants were analyzed for cytokines by ELISA, in quadruplicate. RAW264.7 cells were stimulated with either CpG-ODN (1 μg/ml or 1.25 μg/ml), LPS (about 1 ng/ml), Poly (I:C) (about 10 μg/ml), flagellin (about 5 ng/ml), or zymosan (about 10 μg/ml). Dose response curves were done with each PAMP to determine optimal stimulation concentration. For CpG-ODN stimulation, cells were incubated for 4 hours at 37° C., supernatants collected, and TNF-α measured by ELISA. Any cytokine involved in inflammatory disease mediated toll receptor signaling can be measured using similar assays.
The effect of several peptides on TNF-α secretion from RAW264.7 cells in response to stimulation by CpG-ODN was studied. Each peptide was initially tested at 3 concentrations, 37 μM, 22.2 μM, and 11.1 μM. […] The peptides were then tested at 11.1 μM, 7.4 μM, and 3.7 μM (Table 3). […] Cell viability was examined for each peptide at the concentrations tested for TNF-α inhibition.
Inhibition of TNF-α secretion by various T-peptides was examined. RAW264.7 cells were plated at 3×10^5 cells/well in 48-well plates. After 24 h the cells were incubated with peptide at various concentrations at room temperature in triplicate for 15 minutes and then stimulated with 1.25 ug/ml CpG-ODN or 1 ng/ml LPS. Cells were then incubated for 4 hours at 37° C., supernatants collected, and TNF-α measured by ELISA. Percent inhibition was calculated by comparing TNF-α secretion from cells incubated with peptide to control cells with no peptide treatment. The inhibitive effects of peptides T3 (SEQ ID NO: 319), T11 (SEQ ID NO: 327), T21 (SEQ ID NO: 337), T36 (SEQ ID NO: 352), T37 (SEQ ID NO: 353), T51 (SEQ ID NO: 367), and T52 (SEQ ID NO: 368) were compared to inhibition by an analogue of P13 (SEQ ID NO: 369) having a sequence of nine arginine residues at the C-terminus (P13-R^9 (SEQ ID NO: 378)). (Table 4).
In general terms: ELISA stands for enzyme-linked immunosorbent assay.

The test system is the same in assay [2]. Described as above. The conditions noted are these: peptide 3.1 μM (Table 3), 1 μg/ml CpG-ODN, 4 hours. In kind it is cell-based, murine.

With AIIKVYVYACIRRRRRRRRR [T52-R^9], the “activity compared with P13 (inhibition of TNF-α after stimulation of RAW264.7 cells with CpG)” value in assay [1] was “superior activity”. Also, the results for the “Percent Inhibition of TNF-α secretion, CpG Stimulation” value in assay [1] (peptide 7.1 μM), in assay [1] (peptide 11.1 μM) and in assay [1] (peptide 22 μM) were 97.8%, 99.2% and 100%, respectively.
The corresponding values for AIVKLTVYACIRRRRRRRRR [T51-R^9] are “superior activity”, 94%, 98% and 99.7%.
For DIIKLTVYDCIRRRRRRRRR [T36-R^9], the “activity compared with P13 (inhibition of TNF-α after stimulation of RAW264.7 cells with CpG)” value in assay [1] is on record as “superior activity”. In addition, the “Percent Inhibition of TNF-α secretion, CpG Stimulation” value stood at 50% in assay [1] (peptide 7.1 μM), 70% in assay [1] (peptide 11.1 μM) and 82% in assay [1] (peptide 22 μM).
In the same order, the values of DIVKLYVYDCIRRRRRRRRR [T21-R^9] are “superior activity”, 69%, 90% and 98%.
In the same order, the values of DIVKVTVYDCIRRRRRRRRR [T37-R^9] are “superior activity”, 46%, 87% and 93%.
For “EMFTILEEYFMYRGLLGLRIKRRRRRRRRR (C-terminal nona-arginine (R9)) [74(S10)-R^9]”, the “Inhibition of TNF-α secretion (percent inhibition)” value (from here on “Inhibition … (percent inhibition)”) in assay [2] is given as 35%; in assay [1] (peptide 7 μM (Table 3)), 80%; in assay [1] (peptide 11 μM (Table 3)), 92%. For the same sequence, the figures for the “Percent Inhibition of TNF-α secretion” value in assay [1] (peptide 11.1 μM), in assay [1] (peptide 22.2 μM) and in assay [1] (peptide 37 μM) were 91%, 100% and 100%, respectively.
Turning to “EMFTILEEYFMYRGLLGLRIKYGRLFNEIRRRRRRRRR (C-terminal nona-arginine (R9)) [42(S1)-R^9]”, the “Inhibition … (percent inhibition)” value stood at 37% in assay [2], 67% in assay [1] (peptide 7 μM (Table 3)) and 83% in assay [1] (peptide 11 μM (Table 3)). Further, the “Percent Inhibition of TNF-α secretion” value is on record as 85% in assay [1] (peptide 11.1 μM), 96% in assay [1] (peptide 22.2 μM) and 97% in assay [1] (peptide 37 μM).
As to “EMFTILEEYFMYRGLLGLRIKYGRLFNRRRRRRRRR (C-terminal nona-arginine (R9)) [68(S4)-R^9]”, the results for the “Inhibition … (percent inhibition)” value in assay [2], in assay [1] (peptide 7 μM (Table 3)) and in assay [1] (peptide 11 μM (Table 3)) were 69%, 83% and 95%, respectively. Besides, the “Percent Inhibition of TNF-α secretion” value in assay [1] (peptide 11.1 μM) worked out at 95%; in assay [1] (peptide 22.2 μM), 100%; in assay [1] (peptide 37 μM), 100%.
On to “EMFTILEEYFMYRGLLGLRIKYGRLFRRRRRRRRR (C-terminal nona-arginine (R9)) [69(S5)-R^9]”, for which the “Inhibition … (percent inhibition)” value in assay [2] worked out at 66%; in assay [1] (peptide 7 μM (Table 3)) it was 94%; in assay [1] (peptide 11 μM (Table 3)), 93%. The “Percent Inhibition of TNF-α secretion” value was 93% in assay [1] (peptide 11.1 μM), 100% in assay [1] (peptide 22.2 μM) and 100% in assay [1] (peptide 37 μM).
Consider “EMFTILEEYFMYRGLLGLRIKYGRLRRRRRRRRR (C-terminal nona-arginine (R9)) [70(S6)-R^9]”, for which the “Inhibition … (percent inhibition)” value is 63% in assay [2], 87% in assay [1] (peptide 7 μM (Table 3)) and 94% in assay [1] (peptide 11 μM (Table 3)). Moreover, the “Percent Inhibition of TNF-α secretion” value in assay [1] (peptide 11.1 μM) was found to be 93%; in assay [1] (peptide 22.2 μM), 100%; in assay [1] (peptide 37 μM), 100%.
On to “EMFTILEEYFMYRGLLGLRIKYGRRRRRRRRR (C-terminal nona-arginine (R9)) [72(S8)-R^9]”, for which the “Inhibition … (percent inhibition)” value in assay [2] is 43%; in assay [1] (peptide 7 μM (Table 3)), 80%; in assay [1] (peptide 11 μM (Table 3)) it was 93%. The figures for the “Percent Inhibition of TNF-α secretion” value in assay [1] (peptide 11.1 μM), in assay [1] (peptide 22.2 μM) and in assay [1] (peptide 37 μM) were 92%, 100% and 100%, respectively.
Consider “EMFTILEEYFMYRGLLGLRIKYGRRRRRRRRRR (C-terminal nona-arginine (R9)) [71(S7)-R^9]”, for which the “Inhibition … (percent inhibition)” value was found to be 21% in assay [2], 29% in assay [1] (peptide 7 μM (Table 3)) and 38% in assay [1] (peptide 11 μM (Table 3)). Moreover, the “Percent Inhibition of TNF-α secretion” value turned out to be 56% in assay [1] (peptide 11.1 μM), 82% in assay [1] (peptide 22.2 μM) and 91% in assay [1] (peptide 37 μM).
As for “EMFTILEEYFMYRGLLGLRIKYRRRRRRRRR (C-terminal nona-arginine (R9)) [73(S9)-R^9]”, the results for the “Inhibition … (percent inhibition)” value in assay [2], in assay [1] (peptide 7 μM (Table 3)) and in assay [1] (peptide 11 μM (Table 3)) were 3%, 76% and 85%, respectively. The “Percent Inhibition of TNF-α secretion” value came out at 84% in assay [1] (peptide 11.1 μM), 100% in assay [1] (peptide 22.2 μM) and 100% in assay [1] (peptide 37 μM).
Turning to “EMFTILEEYFMYRGLLGLRIRRRRRRRRR (C-terminal nona-arginine (R9)) [75(S11)-R^9]”, the “Inhibition … (percent inhibition)” value in assay [2] came out at 31%; in assay [1] (peptide 7 μM (Table 3)), 84%; in assay [1] (peptide 11 μM (Table 3)), 93%. For the same sequence, the “Percent Inhibition of TNF-α secretion” value in assay [1] (peptide 11.1 μM) is listed as 92%; in assay [1] (peptide 22.2 μM), 97%; in assay [1] (peptide 37 μM), 98%.
With “FTILEEYFMYRGLLGLRIRRRRRRRRR (C-terminal nona-arginine (R9)) [103(S19)-R^9]”, the “Inhibition … (percent inhibition)” value in assay [1] (peptide 7 μM (Table 3)) came to 87%; in assay [1] (peptide 11 μM (Table 3)), 93%. The “Percent Inhibition of TNF-α secretion” value was found to be 93% in assay [1] (peptide 11.1 μM) and 99% in assay [1] (peptide 22.2 μM).
On to “ILEEYFMYRGLLGLRIRRRRRRRRR (C-terminal nona-arginine (R9)) [105(S21)-R^9]”, for which the “Inhibition … (percent inhibition)” value in assay [1] (peptide 7 μM (Table 3)) amounted to 52%; in assay [1] (peptide 11 μM (Table 3)), 62%. In addition, the results for the “Percent Inhibition of TNF-α secretion” value in assay [1] (peptide 11.1 μM) and in assay [1] (peptide 22.2 μM) were 62% and 91%, respectively.
Turning to “LEEYFMYGLLGLRIRRRRRRRRR (C-terminal nona-arginine (R9)) [106(S22)-R^9]”, the figures for the “Inhibition … (percent inhibition)” value in assay [1] (peptide 7 μM (Table 3)) and in assay [1] (peptide 11 μM (Table 3)) were 53% and 70%, respectively. Further, the “Percent Inhibition of TNF-α secretion” value is given as 70% in assay [1] (peptide 11.1 μM) and 92% in assay [1] (peptide 22.2 μM).
Turning to “MFTILEEYFMYRGLLGLRIRRRRRRRRR (C-terminal nona-arginine (R9)) [102(S18)-R^9]”, the “Inhibition … (percent inhibition)” value in assay [1] (peptide 7 μM (Table 3)) came to 48%; in assay [1] (peptide 11 μM (Table 3)), 72%. Also, the results for the “Percent Inhibition of TNF-α secretion” value in assay [1] (peptide 11.1 μM) and in assay [1] (peptide 22.2 μM) were 72% and 91%, respectively.
With “TILEEYFMYRGLLGLRIRRRRRRRRR (C-terminal nona-arginine (R9)) [104(S20)-R^9]”, the “Inhibition … (percent inhibition)” value in assay [1] (peptide 7 μM (Table 3)) is on record as 60%; in assay [1] (peptide 11 μM (Table 3)), 74%. For the same sequence, the “Percent Inhibition of TNF-α secretion” value turned out to be 74% in assay [1] (peptide 11.1 μM) and 93% in assay [1] (peptide 22.2 μM).
